Measurements from ChEMBL document CHEMBL5113398, “Design and synthesis of new quinoline derivatives as selective C-RAF kinase inhibitors with potent anticancer activity” (Eur J Med Chem, 2022).
Values after ≈ are worked out from the molar mass of the structure shown. Blank lines part the entries; values can stand above or below the molecule they belong to.

Tests used:
[1] = target: Vascular endothelial growth factor receptor 2 (Homo sapiens) (UniProt P35968); assay: Inhibition of VEGFR2 (unknown origin) at 1 uM in presence of ATP by hotspot kinase assay
CCRF-CEM = assay: Anticancer activity against human CCRF-CEM cells assessed as cell growth inhibition incubated for 48 hrs by SRB assay; type: functional
HL-60 = assay: Anticancer activity against human HL-60 cells assessed as cell growth inhibition incubated for 48 hrs by SRB assay; type: functional
K562 = assay: Anticancer activity against human K562 cells assessed as cell growth inhibition incubated for 48 hrs by SRB assay; type: functional
RPMI-8226 = assay: Anticancer activity against human RPMI-8226 cells assessed as cell growth inhibition incubated for 48 hrs by SRB assay; type: functional
EKVX = assay: Anticancer activity against human EKVX cells assessed as cell growth inhibition incubated for 48 hrs by SRB assay; type: functional
HOP-62 = assay: Anticancer activity against human HOP-62 cells assessed as cell growth inhibition incubated for 48 hrs by SRB assay; type: functional
HOP-92 = assay: Anticancer activity against human HOP-92 cells assessed as cell growth inhibition incubated for 48 hrs by SRB assay; type: functional
NCI-H460 = assay: Anticancer activity against human NCI-H460 cells assessed as cell growth inhibition incubated for 48 hrs by SRB assay; type: functional
HCT-15 = assay: Anticancer activity against human HCT-15 cells assessed as cell growth inhibition incubated for 48 hrs by SRB assay; type: functional
HT-29 = assay: Anticancer activity against human HT-29 cells assessed as cell growth inhibition incubated for 48 hrs by SRB assay; type: functional
SF-268 = assay: Anticancer activity against human SF-268 cells assessed as cell growth inhibition incubated for 48 hrs by SRB assay; type: functional
SF-295 = assay: Anticancer activity against human SF-295 cells assessed as cell growth inhibition incubated for 48 hrs by SRB assay; type: functional
SF-539 = assay: Anticancer activity against human SF-539 cells assessed as cell growth inhibition incubated for 48 hrs by SRB assay; type: functional
MDA-MB-435 [2] = assay: Anticancer activity against human MDA-MB-435 cells assessed as cell growth inhibition incubated for 48 hrs by SRB assay; type: functional
SK-MEL-2 = assay: Anticancer activity against human SK-MEL-2 cells assessed as cell growth inhibition incubated for 48 hrs by SRB assay; type: functional
OVCAR-8 [3] = assay: Anticancer activity against human OVCAR-8 cells assessed as cell growth inhibition incubated for 48 hrs by SRB assay; type: functional
NCI/ADR-RES = assay: Anticancer activity against human NCI/ADR-RES cells assessed as cell growth inhibition incubated for 48 hrs by SRB assay; type: functional
SK-OV-3 [4] = assay: Anticancer activity against human SK-OV-3 cells assessed as cell growth inhibition incubated for 48 hrs by SRB assay; type: functional
786-0 = assay: Anticancer activity against human 786-0 cells assessed as cell growth inhibition incubated for 48 hrs by SRB assay; type: functional
CAKI-1 = assay: Anticancer activity against human CAKI-1 cells assessed as cell growth inhibition incubated for 48 hrs by SRB assay; type: functional
RXF 393 = assay: Anticancer activity against human RXF 393 cells assessed as cell growth inhibition incubated for 48 hrs by SRB assay; type: functional
MOLT-4 = assay: Anticancer activity against human MOLT-4 cells assessed as total cell growth inhibition incubated for 48 hrs by SRB assay; type: functional
NCI-H23 = assay: Anticancer activity against human NCI-H23 cells assessed as total cell growth inhibition incubated for 48 hrs by SRB assay; type: functional
NCI-H322M = assay: Anticancer activity against human NCI-H322M cells assessed as total cell growth inhibition incubated for 48 hrs by SRB assay; type: functional
NCI-H522 = assay: Anticancer activity against human NCI-H522 cells assessed as total cell growth inhibition incubated for 48 hrs by SRB assay; type: functional
HCC 2998 = assay: Anticancer activity against human HCC 2998 cells assessed as total cell growth inhibition incubated for 48 hrs by SRB assay; type: functional
HCT-116 = assay: Anticancer activity against human HCT-116 cells assessed as total cell growth inhibition incubated for 48 hrs by SRB assay; type: functional
KM12 = assay: Anticancer activity against human KM12 cells assessed as total cell growth inhibition incubated for 48 hrs by SRB assay; type: functional
Malme-3M = assay: Anticancer activity against human Malme-3M cells assessed as total cell growth inhibition incubated for 48 hrs by SRB assay; type: functional
MDA-MB-435 [5] = assay: Anticancer activity against human MDA-MB-435 cells assessed as total cell growth inhibition incubated for 48 hrs by SRB assay; type: functional
SK-MEL-28 = assay: Anticancer activity against human SK-MEL-28 cells assessed as total cell growth inhibition incubated for 48 hrs by SRB assay; type: functional
UACC-257 = assay: Anticancer activity against human UACC-257 cells assessed as total cell growth inhibition incubated for 48 hrs by SRB assay; type: functional
OVCAR-8 [6] = assay: Anticancer activity against human OVCAR-8 cells assessed as total cell growth inhibition incubated for 48 hrs by SRB assay; type: functional
SK-OV-3 [7] = assay: Anticancer activity against human SK-OV-3 cells assessed as total cell growth inhibition incubated for 48 hrs by SRB assay; type: functional
A498 = assay: Anticancer activity against human A498 cells assessed as total cell growth inhibition incubated for 48 hrs by SRB assay; type: functional
MCF7 = assay: Anticancer activity against human MCF7 cells assessed as total cell growth inhibition incubated for 48 hrs by SRB assay; type: functional
Hs-578T = assay: Anticancer activity against human Hs-578T cells assessed as total cell growth inhibition incubated for 48 hrs by SRB assay; type: functional
BT-549 = assay: Anticancer activity against human BT-549 cells assessed as total cell growth inhibition incubated for 48 hrs by SRB assay; type: functional
T47D = assay: Anticancer activity against human T47D cells assessed as total cell growth inhibition incubated for 48 hrs by SRB assay; type: functional
MDA-MB-468 = assay: Anticancer activity against human MDA-MB-468 cells assessed as total cell growth inhibition incubated for 48 hrs by SRB assay; type: functional
[8] = target: Serine/threonine-protein kinase B-raf (Homo sapiens) (UniProt P15056); assay: Inhibition of wild type B-RAF (unknown origin) at 1 uM in presence of ATP by hotspot kinase assay
[9] = target: Epidermal growth factor receptor (Homo sapiens) (UniProt P00533); assay: Inhibition of EGFR (unknown origin) at 1 uM in presence of ATP by hotspot kinase assay
[10] = target: Dual specificity mitogen-activated protein kinase kinase 1 (Homo sapiens) (UniProt Q02750); assay: Inhibition of MEK1 (unknown origin) at 1 uM in presence of ATP by hotspot kinase assay
[11] = target: Hepatocyte growth factor receptor (Homo sapiens) (UniProt P08581); assay: Inhibition of MET (unknown origin) at 1 uM in presence of ATP by hotspot kinase assay
[12] = target: Platelet-derived growth factor receptor alpha (Homo sapiens) (UniProt P16234); assay: Inhibition of PDGFRalpha (unknown origin) at 1 uM in presence of ATP by hotspot kinase assay
[13] = Aqueous solubility of compound by HPLC analysis; type: physicochemical

Chain of Epidermal growth factor receptor (Homo sapiens) (P00533 whole entry): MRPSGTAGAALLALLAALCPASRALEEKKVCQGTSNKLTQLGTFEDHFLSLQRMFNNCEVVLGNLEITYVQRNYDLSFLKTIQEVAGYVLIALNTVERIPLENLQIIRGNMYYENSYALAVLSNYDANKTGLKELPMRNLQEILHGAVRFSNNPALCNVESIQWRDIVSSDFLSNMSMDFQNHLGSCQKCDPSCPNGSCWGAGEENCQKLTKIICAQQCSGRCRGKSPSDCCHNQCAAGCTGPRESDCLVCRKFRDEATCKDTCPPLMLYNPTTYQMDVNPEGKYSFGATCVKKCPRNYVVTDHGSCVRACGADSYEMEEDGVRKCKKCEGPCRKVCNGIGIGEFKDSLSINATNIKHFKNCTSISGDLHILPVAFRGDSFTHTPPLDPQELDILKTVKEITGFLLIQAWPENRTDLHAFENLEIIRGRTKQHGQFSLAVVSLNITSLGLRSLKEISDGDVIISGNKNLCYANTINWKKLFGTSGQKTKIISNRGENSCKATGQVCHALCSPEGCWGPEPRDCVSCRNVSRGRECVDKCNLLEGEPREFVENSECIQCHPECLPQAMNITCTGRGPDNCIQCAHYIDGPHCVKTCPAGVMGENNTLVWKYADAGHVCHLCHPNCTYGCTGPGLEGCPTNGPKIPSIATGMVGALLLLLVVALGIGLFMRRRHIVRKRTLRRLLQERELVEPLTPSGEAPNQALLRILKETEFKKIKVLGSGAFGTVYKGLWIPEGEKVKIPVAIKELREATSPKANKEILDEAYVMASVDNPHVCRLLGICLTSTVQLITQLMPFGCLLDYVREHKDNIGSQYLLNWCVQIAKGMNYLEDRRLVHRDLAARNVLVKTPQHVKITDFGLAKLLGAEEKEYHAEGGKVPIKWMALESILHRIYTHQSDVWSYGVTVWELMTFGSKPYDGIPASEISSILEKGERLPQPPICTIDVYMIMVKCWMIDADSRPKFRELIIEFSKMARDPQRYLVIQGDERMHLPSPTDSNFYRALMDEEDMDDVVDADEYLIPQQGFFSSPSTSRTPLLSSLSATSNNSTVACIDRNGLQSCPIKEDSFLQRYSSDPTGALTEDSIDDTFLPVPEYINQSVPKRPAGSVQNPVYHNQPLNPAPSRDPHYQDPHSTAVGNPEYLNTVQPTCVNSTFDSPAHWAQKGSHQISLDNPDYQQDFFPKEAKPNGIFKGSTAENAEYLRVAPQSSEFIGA
Chain of Vascular endothelial growth factor receptor 2 (Homo sapiens) (P35968 whole entry): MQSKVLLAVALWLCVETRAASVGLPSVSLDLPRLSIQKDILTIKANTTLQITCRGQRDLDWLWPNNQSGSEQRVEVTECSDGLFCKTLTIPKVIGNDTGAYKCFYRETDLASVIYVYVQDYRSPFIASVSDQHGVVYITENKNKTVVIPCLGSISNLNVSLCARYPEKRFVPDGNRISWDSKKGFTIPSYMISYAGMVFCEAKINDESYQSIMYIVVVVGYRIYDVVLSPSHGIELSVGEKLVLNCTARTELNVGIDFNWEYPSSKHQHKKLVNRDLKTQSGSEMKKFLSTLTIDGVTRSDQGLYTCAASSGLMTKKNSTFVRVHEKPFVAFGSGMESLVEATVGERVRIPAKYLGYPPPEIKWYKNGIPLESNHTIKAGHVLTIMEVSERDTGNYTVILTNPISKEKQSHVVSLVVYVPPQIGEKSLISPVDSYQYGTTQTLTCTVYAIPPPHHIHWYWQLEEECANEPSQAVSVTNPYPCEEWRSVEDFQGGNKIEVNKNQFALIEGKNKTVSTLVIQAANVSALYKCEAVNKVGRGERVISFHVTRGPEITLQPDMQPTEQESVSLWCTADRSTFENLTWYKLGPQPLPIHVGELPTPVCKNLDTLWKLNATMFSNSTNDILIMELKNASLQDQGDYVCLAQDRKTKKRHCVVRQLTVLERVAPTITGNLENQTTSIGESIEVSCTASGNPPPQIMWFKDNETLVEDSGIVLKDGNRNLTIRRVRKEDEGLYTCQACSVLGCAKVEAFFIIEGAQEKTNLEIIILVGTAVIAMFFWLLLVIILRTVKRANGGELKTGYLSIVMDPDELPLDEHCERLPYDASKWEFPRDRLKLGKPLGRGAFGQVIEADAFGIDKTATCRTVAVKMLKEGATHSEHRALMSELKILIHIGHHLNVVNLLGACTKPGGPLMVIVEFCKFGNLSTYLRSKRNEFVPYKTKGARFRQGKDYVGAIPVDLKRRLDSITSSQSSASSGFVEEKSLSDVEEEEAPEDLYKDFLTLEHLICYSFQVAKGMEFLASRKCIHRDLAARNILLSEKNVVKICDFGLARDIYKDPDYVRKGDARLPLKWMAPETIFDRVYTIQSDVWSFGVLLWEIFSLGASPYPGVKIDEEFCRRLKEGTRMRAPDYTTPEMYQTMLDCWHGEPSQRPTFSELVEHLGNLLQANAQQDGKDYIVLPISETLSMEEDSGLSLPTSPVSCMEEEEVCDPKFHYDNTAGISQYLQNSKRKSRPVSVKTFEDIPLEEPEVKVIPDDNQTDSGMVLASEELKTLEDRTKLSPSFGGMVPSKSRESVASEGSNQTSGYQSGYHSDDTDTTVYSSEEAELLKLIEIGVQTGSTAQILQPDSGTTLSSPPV
Chain of Hepatocyte growth factor receptor (Homo sapiens) (P08581 whole entry): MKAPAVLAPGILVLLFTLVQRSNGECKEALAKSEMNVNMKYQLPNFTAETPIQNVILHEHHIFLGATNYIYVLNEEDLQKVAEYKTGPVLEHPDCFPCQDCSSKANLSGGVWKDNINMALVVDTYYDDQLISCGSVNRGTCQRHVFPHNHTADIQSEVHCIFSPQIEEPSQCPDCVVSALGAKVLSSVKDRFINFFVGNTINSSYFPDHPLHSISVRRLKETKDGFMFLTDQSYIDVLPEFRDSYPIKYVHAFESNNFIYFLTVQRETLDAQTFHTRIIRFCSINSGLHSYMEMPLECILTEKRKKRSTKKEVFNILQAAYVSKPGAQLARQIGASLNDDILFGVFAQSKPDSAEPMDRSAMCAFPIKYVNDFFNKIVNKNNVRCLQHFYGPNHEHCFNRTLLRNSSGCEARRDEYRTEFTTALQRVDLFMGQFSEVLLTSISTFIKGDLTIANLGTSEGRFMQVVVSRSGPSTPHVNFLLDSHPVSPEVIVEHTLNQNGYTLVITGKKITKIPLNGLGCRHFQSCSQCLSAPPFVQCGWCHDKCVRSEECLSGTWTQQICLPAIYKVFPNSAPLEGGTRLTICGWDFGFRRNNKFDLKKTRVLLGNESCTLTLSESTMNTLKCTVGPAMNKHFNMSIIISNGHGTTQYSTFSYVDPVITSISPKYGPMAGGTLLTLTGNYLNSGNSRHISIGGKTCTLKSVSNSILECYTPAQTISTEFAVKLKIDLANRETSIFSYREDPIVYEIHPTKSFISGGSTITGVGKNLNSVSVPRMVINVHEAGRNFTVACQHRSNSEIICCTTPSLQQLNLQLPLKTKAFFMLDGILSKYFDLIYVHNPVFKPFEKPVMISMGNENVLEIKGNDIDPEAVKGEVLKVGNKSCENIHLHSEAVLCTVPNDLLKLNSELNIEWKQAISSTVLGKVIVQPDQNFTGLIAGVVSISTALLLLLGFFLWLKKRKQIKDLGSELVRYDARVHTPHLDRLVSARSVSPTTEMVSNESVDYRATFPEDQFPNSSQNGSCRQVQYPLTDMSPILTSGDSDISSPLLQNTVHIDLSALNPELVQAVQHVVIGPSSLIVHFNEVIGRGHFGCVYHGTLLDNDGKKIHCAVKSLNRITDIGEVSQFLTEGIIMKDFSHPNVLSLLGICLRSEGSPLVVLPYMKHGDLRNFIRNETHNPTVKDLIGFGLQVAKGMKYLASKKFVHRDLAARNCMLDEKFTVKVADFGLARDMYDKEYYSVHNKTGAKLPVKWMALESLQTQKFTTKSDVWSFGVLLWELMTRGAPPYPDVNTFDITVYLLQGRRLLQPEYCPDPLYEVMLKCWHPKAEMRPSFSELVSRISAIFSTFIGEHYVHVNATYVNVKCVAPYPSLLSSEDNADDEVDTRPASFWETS
Chain of Dual specificity mitogen-activated protein kinase kinase 1 (Homo sapiens) (Q02750 whole entry): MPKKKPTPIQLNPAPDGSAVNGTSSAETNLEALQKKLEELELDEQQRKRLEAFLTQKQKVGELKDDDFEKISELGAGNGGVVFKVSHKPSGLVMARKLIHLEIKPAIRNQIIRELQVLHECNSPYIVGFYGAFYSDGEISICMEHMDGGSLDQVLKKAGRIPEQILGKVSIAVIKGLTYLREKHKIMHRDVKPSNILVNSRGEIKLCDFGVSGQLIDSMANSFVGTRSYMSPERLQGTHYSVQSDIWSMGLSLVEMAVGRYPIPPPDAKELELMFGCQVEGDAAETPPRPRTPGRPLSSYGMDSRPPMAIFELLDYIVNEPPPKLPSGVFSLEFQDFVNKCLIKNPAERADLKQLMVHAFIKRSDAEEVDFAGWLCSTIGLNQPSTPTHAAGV
Chain of Serine/threonine-protein kinase B-raf (Homo sapiens) (P15056 whole entry): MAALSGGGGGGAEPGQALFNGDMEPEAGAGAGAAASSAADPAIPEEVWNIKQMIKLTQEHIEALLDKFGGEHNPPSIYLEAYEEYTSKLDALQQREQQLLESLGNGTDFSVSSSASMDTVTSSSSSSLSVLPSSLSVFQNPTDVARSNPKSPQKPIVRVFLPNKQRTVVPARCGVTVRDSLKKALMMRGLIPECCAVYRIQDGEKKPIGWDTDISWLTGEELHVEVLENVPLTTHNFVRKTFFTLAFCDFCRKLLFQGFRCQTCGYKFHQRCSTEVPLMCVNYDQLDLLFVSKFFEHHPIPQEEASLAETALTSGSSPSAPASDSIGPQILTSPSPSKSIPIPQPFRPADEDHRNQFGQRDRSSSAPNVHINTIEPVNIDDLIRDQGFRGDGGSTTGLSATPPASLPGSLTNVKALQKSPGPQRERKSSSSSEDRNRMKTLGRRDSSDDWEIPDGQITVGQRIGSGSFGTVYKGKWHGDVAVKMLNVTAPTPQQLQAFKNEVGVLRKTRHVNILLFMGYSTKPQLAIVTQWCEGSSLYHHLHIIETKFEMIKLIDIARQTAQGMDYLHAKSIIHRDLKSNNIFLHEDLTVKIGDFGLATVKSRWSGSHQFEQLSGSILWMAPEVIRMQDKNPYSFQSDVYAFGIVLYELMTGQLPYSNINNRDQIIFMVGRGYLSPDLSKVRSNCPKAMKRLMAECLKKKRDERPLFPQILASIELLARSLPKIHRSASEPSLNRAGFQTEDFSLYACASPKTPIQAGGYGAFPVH

inhibition [1]: 6.34% | GI50 (CCRF-CEM): 1.41 µM | GI50 (HL-60): 1.62 µM | GI50 (K562): 1.41 µM | GI50 (RPMI-8226): 0.84 µM | GI50 (NCI-H460): 1.66 µM | GI50 (HCT-15): 1.1 µM | GI50 (HT-29): 1.75 µM | GI50 (MDA-MB-435 [2]): 1.9 µM | GI50 (SK-MEL-2): 1.74 µM | GI50 (OVCAR-8 [3]): 1.67 µM | GI50 (SK-OV-3 [4]): 2.09 µM | GI50 (786-0): 1.28 µM | inhibition [8]: 26.5% | inhibition [9]: 3.62% | inhibition [10]: 25.5% | inhibition [11]: 1.04% | inhibition [12]: 26.9% | solubility [13]: 317 µM (≈ 211 µg/mL)
SMILES: COc1cc2cc(Oc3ccc(NC(=O)Nc4cc(C(F)(F)F)cc(C(F)(F)F)c4)cc3)c(C)nc2cc1OCCN1CCOCC1
GI50 (EKVX): 1.64 µM | GI50 (HOP-62): 2.2 µM | GI50 (HOP-92): 0.9 µM | GI50 (SF-268): 1.98 µM | GI50 (SF-295): 1.14 µM | GI50 (SF-539): 1.54 µM | GI50 (NCI/ADR-RES): 1.59 µM | GI50 (CAKI-1): 1.47 µM | GI50 (RXF 393): 1.12 µM | TGI (MOLT-4): 4.29 µM | TGI (NCI-H23): 6.69 µM | TGI (NCI-H322M): 6.87 µM | TGI (NCI-H522): 7.29 µM | TGI (HCC 2998): 6.97 µM | TGI (HCT-116): 5.33 µM | TGI (KM12): 5.95 µM | TGI (Malme-3M): 3.79 µM | TGI (MDA-MB-435 [5]): 6.72 µM | TGI (SK-MEL-28): 6.94 µM | TGI (UACC-257): 4.24 µM | TGI (OVCAR-8 [6]): 12.8 µM | TGI (SK-OV-3 [7]): 8.5 µM | TGI (A498): 6.69 µM | TGI (MCF7): 3.91 µM | TGI (Hs-578T): 7 µM | TGI (BT-549): 7.35 µM | TGI (T47D): 10.2 µM | TGI (MDA-MB-468): 3.76 µM

inhibition [1]: 2.32% | GI50 (CCRF-CEM): 1.45 µM | GI50 (HL-60): 2.32 µM | GI50 (K562): 0.67 µM | GI50 (RPMI-8226): 0.94 µM | GI50 (NCI-H460): 1.65 µM | GI50 (HCT-15): 3.18 µM | GI50 (HT-29): 11.2 µM | GI50 (MDA-MB-435 [2]): 1.94 µM | GI50 (SK-MEL-2): 1.65 µM | GI50 (OVCAR-8 [3]): 2.67 µM | GI50 (SK-OV-3 [4]): 3.34 µM | GI50 (786-0): 1.89 µM | inhibition [8]: 31.6% | inhibition [9]: -2.4% | inhibition [10]: 21.7% | inhibition [11]: 4.3% | inhibition [12]: 23.2% | solubility [13]: 349 µM (≈ 221 µg/mL)
SMILES: COc1cc2cc(Oc3ccc(NC(=O)Nc4ccc(Cl)c(C(F)(F)F)c4)cc3)c(C)nc2cc1OCCN1CCOCC1
GI50 (EKVX): 2.07 µM | GI50 (HOP-62): 2.05 µM | GI50 (HOP-92): 1.66 µM | GI50 (SF-268): 2.59 µM | GI50 (SF-295): 1.19 µM | GI50 (SF-539): 1.68 µM | GI50 (NCI/ADR-RES): 2.34 µM | GI50 (CAKI-1): 1.8 µM | GI50 (RXF 393): 1.77 µM | TGI (MOLT-4): 10.5 µM | TGI (NCI-H23): 3.89 µM | TGI (NCI-H322M): 11.2 µM | TGI (NCI-H522): 4.07 µM | TGI (HCC 2998): 11.1 µM | TGI (HCT-116): 10.8 µM | TGI (KM12): 5.3 µM | TGI (Malme-3M): 3.27 µM | TGI (MDA-MB-435 [5]): 4.1 µM | TGI (SK-MEL-28): 3.12 µM | TGI (UACC-257): 4.55 µM | TGI (OVCAR-8 [6]): > 100 µM | TGI (SK-OV-3 [7]): 17.5 µM | TGI (A498): 9.62 µM | TGI (MCF7): 3.33 µM | TGI (Hs-578T): 5.11 µM | TGI (BT-549): 9.33 µM | TGI (T47D): 5.2 µM | TGI (MDA-MB-468): 2.06 µM

inhibition [1]: -5.85% | GI50 (CCRF-CEM): 1.72 µM | GI50 (HL-60): 2.38 µM | GI50 (K562): 0.88 µM | GI50 (RPMI-8226): 1.12 µM | GI50 (NCI-H460): 1.96 µM | GI50 (HCT-15): 1.73 µM | GI50 (HT-29): 3.07 µM | GI50 (MDA-MB-435 [2]): 1.91 µM | GI50 (SK-MEL-2): 2.38 µM | GI50 (OVCAR-8 [3]): 2.73 µM | GI50 (SK-OV-3 [4]): 3.76 µM | GI50 (786-0): 1.73 µM | inhibition [8]: 23.7% | inhibition [9]: 1.43% | inhibition [10]: 13.1% | inhibition [11]: 3.05% | inhibition [12]: 18.3% | solubility [13]: 497 µM (≈ 305 µg/mL)
SMILES: COc1cc2cc(Oc3ccc(NC(=O)Nc4ccc(F)c(C(F)(F)F)c4)cc3)c(C)nc2cc1OCCN1CCOCC1
GI50 (EKVX): 2.53 µM | GI50 (HOP-62): 3.99 µM | GI50 (HOP-92): 1.31 µM | GI50 (SF-268): 3.66 µM | GI50 (SF-295): 1.35 µM | GI50 (SF-539): 1.77 µM | GI50 (NCI/ADR-RES): 2.56 µM | GI50 (CAKI-1): 2.06 µM | GI50 (RXF 393): 1.78 µM | TGI (MOLT-4): 11.4 µM | TGI (NCI-H23): 5.88 µM | TGI (NCI-H322M): 13.6 µM | TGI (NCI-H522): 9.43 µM | TGI (HCC 2998): 16.7 µM | TGI (HCT-116): 11.2 µM | TGI (KM12): 10.6 µM | TGI (Malme-3M): 3.24 µM | TGI (MDA-MB-435 [5]): 3.9 µM | TGI (SK-MEL-28): 3.13 µM | TGI (UACC-257): 5.18 µM | TGI (OVCAR-8 [6]): > 100 µM | TGI (SK-OV-3 [7]): 26.7 µM | TGI (A498): 10.2 µM | TGI (MCF7): 3.48 µM | TGI (Hs-578T): 8.9 µM | TGI (BT-549): 8.46 µM | TGI (T47D): 32.1 µM | TGI (MDA-MB-468): 10.4 µM
